Measured values published in patent US20240197760A1, “ACTIVATORS OF INTEGRATED STRESS RESPONSE PATHWAY FOR PROTECTION AGAINST FERROPTOSIS” (Burke Neurological Institute, priority 2021, published 2024).
Entries after “also recorded” stand apart in the source; their conditions may differ.

Key:
Trib3, Chac1, Bip = experiment: Expression of ATF4 target genes and chaperone Bip in mouse primary neurons; format: cell-based; conditions: 6 h, mouse primary neurons
Experimental: Total RNA was extracted from primary cortical neurons using NucleoSpin RNA II Kit (Clontech, Catalog number—740955-250). Thereafter, using the Taqman RNA-to-Ct, one step kit (Thermo Fisher Scientific, catalog number—4392938) and following the manufacturer's instructions, […] from each sample was mixed with the Taqman® Gene Expression Master Mix and Taqman® Gene Expression Assays for Creb1 (Catalog number—Mm00501607_m1), Bdnf (Catalog number—Mm04230607_s1), Rbbp4 (Catalog number—Mm00771401_g1), Bip (Catalog number—Mm00517691_m1), Trib3 (Catalog number—Mm00454879_m1), and Chac1 (Catalog number—Mm00509926_m1) with FAM labelled probe and Actin with VIC labelled probe all from Thermo Fisher Scientific on an Applied Biosystems 7500 Fast Real Time PCR System. For assessing gene expression of various specific Bdnf exons in mouse primary neurons, two step qPCR was used. Total RNA from primary cortical neurons was extracted using NucleoSpin RNA II Kit (Clontech, Catalog number—740955-250) and a total of 1.5 μg RNA was used to synthesize cDNA with the SuperScript® III First-Strand Synthesis System (Thermo Fisher Scientific, Catalog number—18080051). Quantitative RT-PCR was then performed using SYBR green (Thermo Fisher Scientific, Catalog number—4309155) on an Applied Biosystems 7500 Fast Real Time PCR System. Quantitative levels for all genes were normalized to the housekeeping gene GAPDH and expressed relative to the relevant control samples as fold change. The sequences of primers used in this part of the study were as follows: Bdnf I forward: […] (SEQ ID NO:9) and Bdnf I reverse: […] (SEQ ID NO:10); Bdnf II forward: […] (SEQ ID NO:11) and Bdnf II reverse: […] (SEQ ID NO:12); Bdnf IV forward #2: […] (SEQ ID NO:13) and Bdnf IV reverse #2: […] (SEQ ID NO:14); Bdnf VI forward: […] (SEQ ID NO:15) and Bdnf VI reverse: […] (SEQ ID NO:16); Bdnf VII forward: […] (SEQ ID NO:17) and Bdnf VII reverse: […] (SEQ ID NO:18) Bdnf IX forward: […] (SEQ ID NO:19) and Bdnf IX reverse: […] (SEQ ID NO:20); Gapdh forward #2: […] (SEQ ID NO:21) and Gapdh reverse #2: […] (SEQ ID NO: 22).

HEK293 cell line = conditions: cited from earlier work
ATF4 = experiment: In vivo bioluminescence imaging of 5′UTR ATF4 luciferase reporter in mouse brain; conditions: 10 mg/Kg intraperitoneally for 4 h
MCAO mice = experiment: Filament MCAO model of transient ischemic stroke, sensory and motor function; format: in vivo, mouse; conditions: 10 mg/Kg i.p. from 24 h after MCAO, every day for 4 weeks
Experimental: To assess the effect of 2-DG on the Bdnf gene expression, mice were injected with either saline or 2-DG (10 mg/Kg) intraperitoneally for 6 h and then mice were euthanized properly, and hippocampi were dissected out from mice brain. In order to assess functional improvement with 2-DG treatment after ischemic stroke, mice were injected with 2-DG (10 mg/Kg) intraperitoneally 24 h after induction of the stroke and then every day for four weeks. For assessing functional improvement with 2-DG treatment after hemorrhagic stroke, mice were injected with 2-DG (10 mg/Kg) intraperitoneally 24 h after induction of the stroke and then every day for three weeks. The ischemic stroke was induced using filament MCAO method as described before (Alim et al., 2019). In brief, all surgeries were conducted in sterile conditions. Male mice were anesthetized with isoflurane (5% induction, and 2% maintenance). A 2 cm incision was opened in the middle of the anterior neck. The right common carotid was temporarily ligated with 6-0 silk (Ethicon Inc.). Right unilateral MCAO was accomplished by inserting a Silicon rubber-coated monofilament (Doccol Corporation) into the internal carotid artery via the external carotid artery stump. Adequacy of MCAO was confirmed by monitoring cortical blood flow at the onset of the occlusion with a laser Doppler flowmetry probe affixed to the skull (Periflux System 5010; Perimed, Sweden). Animals were excluded if mean intra-ischemic laser Doppler flowmetry was >30% pre-ischemic baseline. […] The integrated sensorimotor function in both stimulation of vibrissae (sensory neglect) and rearing (motor response) was assessed through the corner turn test as described previously (Karuppagounder et al., 2016). […] The direction (left or right) in which the mouse turned around was recorded for each trial. […] The time from which the tape was applied to when the mouse successfully removed it was recorded for each paw. […] The latency to reach the ground were recorded. […]

[1] = vs saline significant on days 21 and 28

Structure (SMILES): OC[C@H]1OC(O)C[C@@H](O)[C@@H]1O (stereo partly drawn) [2-DG, (4R,5S,6R)-6-(hydroxymethyl)oxane-2,4,5-triol]
- expression of ATF4 target genes Trib3 and Chac1 (Trib3, Chac1, Bip): enhanced expression; also recorded: Increase
- Bdnf gene expression (HEK293 cell line): inhibit the Bdnf gene expression
- ATF4 translation in the mouse brain (luciferase activity) (ATF4): significant increase
- pole test after ischemic stroke (MCAO mice; vs saline significant on day 21): significant improvement; also recorded: significant difference
- corner test after ischemic stroke (MCAO mice; [1]): significant improvement; also recorded: significant difference
- tape removal test after ischemic stroke (MCAO mice; [1]): significant improvement; also recorded: significant difference
